Source: US10654834B2 (Venenum Biodesign, LLC, priority 2016, dated 2020)
Like-named read-outs stand apart in the source and are kept apart here.

Key:
human TGR5 receptor = molecular target: T1, human TGR5 receptor (Homo sapiens, UniProt Q8TDU6); assay: Human TGR5 cAMP production assay (hTGR5-CHO cells, DiscoveRx cAMP XS+ kit); assay type: cell-based; conditions: luminescent cAMP assay, read-out: Human TGR5 Lum. cAMP Activity (EC50)
T1 construct: host or cells: CHO-K1 (hTGR5-CHO)
T1 sequence (Q8TDU6 1-330): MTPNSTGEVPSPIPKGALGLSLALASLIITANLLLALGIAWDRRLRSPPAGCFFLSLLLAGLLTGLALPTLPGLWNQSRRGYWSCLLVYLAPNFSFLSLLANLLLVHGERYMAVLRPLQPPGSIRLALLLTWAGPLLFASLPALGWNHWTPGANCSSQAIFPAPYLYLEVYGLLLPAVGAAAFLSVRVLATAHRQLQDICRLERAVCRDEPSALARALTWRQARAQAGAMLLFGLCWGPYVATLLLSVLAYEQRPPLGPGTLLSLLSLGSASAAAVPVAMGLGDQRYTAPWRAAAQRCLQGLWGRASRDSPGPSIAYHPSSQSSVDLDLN
Summary of the method: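 CHO-K1 cells stably expressing hTGR5, in PBS with IBMX and cAMP antibody, treated with half-log compound dilutions for 1 h at room temperature. cAMP measured by enzyme-fragment complementation luminescence after overnight detection; EC50 values reported.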

Mouse STC-1 cells = assay: STC-1 GLP-1 assay (GLP-1 secretion); assay type: cell-based
Summary of the method: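 Mouse STC-1 cells were plated two days ahead in DMEM with 10% charcoal-dextran stripped FBS, then exposed to compound in HBSS with protease inhibitors, DPP-IV inhibitor and 0.1% fatty acid free BSA for 2 h at 37° C. Active GLP-1 in supernatant was quantified by HTRF; EC50 derived from 12-point half-log curves.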

[1] = Mouse STC-1 cells, GLP-1 secretion, 2 h, read-out: Mouse STC-1 HTRF GLP-1 Activity (EC50)

EC50 (human TGR5 receptor) [nM]	EC50 (Mouse STC-1 cells; [1]) [nM]	EC50 (Mouse STC-1 cells; Mus musculus, STC-1, read-out: EC50 concentration of GLP-1 stimulation in STC-1 cells) [nM]	SMILES
< 100	< 100	–	N#C/N=C(\NCCC(=O)O)NCCC1CCN(c2cc(N3CC[C@H]3C(=O)NCCc3ccc(C#N)cc3)nc(C(F)(F)F)n2)CC1 [Compound 351, (S,Z)-3-(2-cyano-3-(2-(1-(6-(2-((4-cyanophenethyl)carbamoyl)azetidin-1-yl)-2-(trifluoromethyl)pyrimidin-4-yl)piperidin-4-yl)ethyl)guanidino)propanoic acid]
< 100	< 100	–	O=C(CCC1CCN(c2cc(N3CC[C@H]3C(=O)NCCc3ccc(C(F)(F)F)cc3)nc(C(F)(F)F)n2)CC1)NCS(=O)(=O)O [Compound 253, (S)-(3-(1-(2-(trifluoromethyl)-6-(2-((4-(trifluoromethyl)phenethyl)-carbamoyl)azetidin-1-yl)pyrimidin-4-yl)piperidin-4-yl)propanamido)-methanesulfonic acid]
< 100	< 100	–	N#Cc1ccc(CCNC(=O)[C@@H]2CCN2c2cc(N3CCC(CCCC(=O)NCP(=O)(O)O)CC3)nc(C(F)(F)F)n2)cc1 [Compound 362, (S)-((4-(1-(6-(2-((4-cyanophenethyl)carbamoyl)azetidin-1-yl)-2-(trifluoromethyl)pyrimidin-4-yl)piperidin-4-yl)butanamido)methyl)phosphonic acid]
< 100	< 100	–	N#Cc1ccc(CCNC(=O)[C@@H]2CCCN2c2cc(N3CCC(CCNC(=O)[C@@H](N)CS(=O)(=O)O)CC3)nc(C(F)(F)F)n2)cc1 [Compound 123, (R)-2-amino-3-((2-(1-(6-((S)-2-((4-cyanophenethyl)carbamoyl)pyrrolidin-1-yl)-2-(trifluoromethyl)pyrimidin-4-yl)piperidin-4-yl)ethyl)amino)-3-oxopropane-1-sulfonic acid]
< 100	100 to 999	–	N#Cc1ccc(CCNC(=O)[C@@H]2CCN2c2cc(N3CCC(CCCC(=O)O)CC3)nc(C(F)(F)F)n2)cc1 [Compound 231, (S)-4-(1-(6-(2-((4-cyanophenethyl)carbamoyl)azetidin-1-yl)-2-(trifluoromethyl)pyrimidin-4-yl)piperidin-4-yl)butanoic acid]
< 100	< 100	–	N#Cc1ccc(CCNC(=O)[C@@H]2CCN2c2cc(N3CCC(CCNC(=O)NCS(=O)(=O)O)CC3)nc(C(F)(F)F)n2)cc1 [Compound 270, (S)-(3-(2-(1-(6-(2-((4-cyanophenethyl)carbamoyl)azetidin-1-yl)-2-(trifluoromethyl)pyrimidin-4-yl)piperidin-4-yl)ethyl)ureido)-methanesulfonic acid]
< 100	< 100	–	N#Cc1ccc(CCNC(=O)[C@@H]2CCCN2c2cc(N3CCC(CCCC(=O)O)CC3)cc(C(F)(F)F)n2)cc1 [Compound 197, (S)-4-(1-(2-(2-((4-cyanophenethyl)carbamoyl)pyrrolidin-1-yl)-6-(trifluoromethyl)pyridin-4-yl)piperidin-4-yl)butanoic acid]
< 100	100 to 999	–	N#Cc1ccc(CCNC(=O)[C@@H]2CCN2c2cc(N3CCC(CCCC(=O)NC[C@@H](O)CO)CC3)nc(C(F)(F)F)n2)cc1 [Compound 261, (S)-N-(4-cyanophenethyl)-1-(6-(4-(4-(((R)-2,3-dihydroxypropyl)amino)-4-oxobutyl)piperidin-1-yl)-2-(trifluoromethyl)pyrimidin-4-yl)azetidine-2-carboxamide]
< 100	100 to 999	–	N#Cc1ccc(CCNC(=O)[C@@H]2CCCN(c3cc(N4CCC(CO)CC4)nc(C(F)(F)F)n3)C2)cc1 [Compound 308, (R)—N-(4-cyanophenethyl)-1-(6-(4-(hydroxymethyl)piperidin-1-yl)-2-(trifluoromethyl)pyrimidin-4-yl)piperidine-3-carboxamide]
< 100	< 100	–	N#Cc1ccc(CCNC(=O)[C@@H]2CCN2c2cc(N3CCC(CCCC(=O)NCCS(=O)(=O)O)CC3)nc(C(F)(F)F)n2)cc1 [Compound 249, (S)-2-(4-(1-(6-(2-((4-cyanophenethyl)carbamoyl)azetidin-1-yl)-2-(trifluoromethyl)pyrimidin-4-yl)piperidin-4-yl)butanamido)ethanesulfonic acid]
< 100	< 100	–	NS(=O)(=O)CCNC(=O)CCCC1CCN(c2cc(N3CCC[C@H]3C(=O)NCCc3ccc(C(F)(F)F)cc3)nc(C(F)(F)F)n2)CC1 [Compound 59, (S)-1-(6-(4-(4-oxo-4-((2-sulfamoylethyl)amino)butyl)piperidin-1-yl)-2-(trifluoromethyl)pyrimidin-4-yl)-N-(4-(trifluoromethyl)phenethyl)-pyrrolidine-2-carboxamide]
< 100	< 100	–	N#Cc1ccc(CCNC(=O)[C@@H]2CCCN2c2cc(N3CCC(CCCC(=O)NCCS(=O)(=O)O)CC3)cc(C(F)(F)F)n2)cc1 [Compound 199, (S)-2-(4-(1-(2-(2-((4-cyanophenethyl)carbamoyl)pyrrolidin-1-yl)-6-(trifluoromethyl)pyridin-4-yl)piperidin-4-yl)butanamido)ethanesulfonic acid]
< 100	100 to 999	–	N#Cc1ccc(CCNC(=O)[C@@H]2CCCN2c2cc(N3CCC(CCCC(=O)NCCC(=O)O)CC3)nc(C(F)(F)F)n2)cc1 [Compound 104, (S)-3-(4-(1-(6-(2-((4-cyanophenethyl)carbamoyl)pyrrolidin-1-yl)-2-(trifluoromethyl)pyrimidin-4-yl)-piperidin-4-yl)butanamido)-propanoic acid]
< 100	< 100	–	O=C(O)CNS(=O)(=O)CCNC(=O)CCCC1CCN(c2cc(N3CCC[C@H]3C(=O)NCCc3ccc(C(F)(F)F)cc3)nc(C(F)(F)F)n2)CC1 [Compound 114, (S)-2-(2-(4-(1-(2-(trifluoromethyl)-6-(2-((4-(trifluoromethyl)phenethyl)-carbamoyl)-pyrrolidin-1-yl)pyrimidin-4-yl)piperidin-4-yl)butanamido)ethyl-sulfonamido)acetic acid]
< 100	100 to 999	–	N#Cc1ccc(CCNC(=O)[C@@H]2CCCN2c2cc(N3CCC(CCCC(=O)NCCNC(=N)N)CC3)nc(C(F)(F)F)n2)cc1 [Compound 128, (S)-N-(4-cyanophenethyl)-1-(6-(4-(4-((2-guanidinoethyl)amino)-4-oxobutyl)piperidin-1-yl)-2-(trifluoromethyl)pyrimidin-4-yl)pyrrolidine-2-carboxamide]
< 100	< 100	~55	N#Cc1ccc(CCNC(=O)[C@@H]2CCN2c2cc(N3CCC(CCNC(=O)NCCC(=O)O)CC3)nc(C(F)(F)F)n2)cc1 [Compound 268, (S)-3-(3-(2-(1-(6-(2-((4-cyanophenethyl)carbamoyl)azetidin-1-yl)-2-(trifluoromethyl)pyrimidin-4-yl)piperidin-4-yl)ethyl)ureido)propanoic acid]
< 100	100 to 999	–	N#Cc1ccc(CCNC(=O)[C@@H]2CCCN2c2cc(-c3ccc(CCC(=O)NCS(=O)(=O)O)cc3)cc(C(F)(F)F)n2)cc1 [Compound 206, (S)-(3-(4-(2-(2-((4-cyanophenethyl)carbamoyl)pyrrolidin-1-yl)-6-(trifluoromethyl)pyridin-4-yl)phenyl)propanamido)methanesulfonic acid]
< 100	< 100	–	N#Cc1ccc(CCNC(=O)[C@@H]2CCCN2c2cc(N3CCC(CCCC(=O)NCC(=O)O)CC3)nc(C(F)(F)F)n2)cc1 [Compound 103, (S)-2-(4-(1-(6-(2-((4-cyanophenethyl)carbamoyl)pyrrolidin-1-yl)-2-(trifluoromethyl)pyrimidin-4-yl)piperidin-4-yl)butanamido)acetic acid]
< 100	1000 to 30000	–	N#Cc1ccc(CCNC(=O)[C@@H]2CCCN2c2cc(N3CCC(CCN)CC3)nc(C(F)(F)F)n2)cc1 [Compound 50, (S)-1-(6-(4-(2-aminoethyl)piperidin-1-yl)-2-(trifluoromethyl)pyrimidin-4-yl)-N-(4-cyanophenethyl)pyrrolidine-2-carboxamide]
< 100	< 100	–	COc1cc(C(F)(F)F)ccc1CCNC(=O)[C@@H]1CCCN1c1cc(N2CCC(CCCC(=O)NCCS(=O)(=O)O)CC2)nc(C(F)(F)F)n1 [Compound 57, (S)-2-(4-(1-(6-(2-((2-methoxy-4-(trifluoromethyl)phenethyl)carbamoyl)-pyrrolidin-1-yl)-2-(trifluoromethyl)-pyrimidin-4-yl)piperidin-4-yl)butanamido)ethanesulfonic acid]
< 100	< 100	–	N#Cc1ccc(CCNC(=O)[C@@H]2CCN2c2cc(N3CCC(CCNC(=O)NCCOCCNC(=O)NCCC(=O)O)CC3)nc(C(F)(F)F)n2)cc1 [Compound 360, (S)-1-(1-(6-(2-((4-cyanophenethyl)carbamoyl)azetidin-1-yl)-2-(trifluoromethyl)pyrimidin-4-yl)piperidin-4-yl)-4,12-dioxo-8-oxa-3,5,11,13-tetraazahexadecan-16-oic acid]
